In patent US6399580B1, “Methods and compositions for stimulating tissue growth and epithelial moisturization” (The Regents of the University of California, priority 1994, dated 2002):

Assays:
hairless mouse epidermis = assay: Epidermal / stratum corneum lipid content (HPTLC/TLC); assay type: in vivo
Procedure: Hairless mice were treated with BrCBE for 5 days as described in Example 10. The following high performance thin layer chromatograph (HPTLC) system was developed for optimal separation of ceramides and glucosylceramides for quantitation by spectrodensitometry. Extracts were applied to precleaned 10 ×20 cm HPTLC plates, 0.5 cm from lower edge of the plate and fractionated sequentially in a horizontal developmental chamber (Camag, Muttenz, Switzerland) in the following solvent systems: 1) chloroform:methanol:acetic acid (190:9:1), v/v/v) to the top, twice; 2) chloroform:methanol:acetone (76:20:4, by volume) to 30 mm. Between each development, the plate was dried for 5 minutes on a hot plate (40° C.), cooled for 2 minutes, and equilibrated in the tank with the solvents for 3 minutes. After final development, the plates were dried, cooled, dipped in charring solution (1.5% cupric sulfate in acetic acid:sulfuric acid:orthophosphoric acid:water (50:10:10:30, by volume) for 15 seconds, dried (40° .C) for 5 minutes, and then charred at 180° C. for 15 minutes. Plates were scanned with a variable wavelength scanning densitometer (Camag, Muttenz, Switzerland). Lipid amounts for each fraction were estimated using ceramides 3 and 4, and galactosylceramides 1 and 2 as reference standards (Sigma Chemical Co., St. Louis, Mo.).
The epidermal glucosylceramide content was determined in mice treated with the topical β-glucocerebrosidase inhibitors. Mice were treated with CBE for one day as described in FIG. 22. The mice were sacrificed and whole skin was excised. Subcutaneous fascia and fat were scraped off, and the samples were placed dermis side down onto […] EDTA in PBS-CMF (pH 7.4) and incubated at 37° C. for 40 min. Skin was blotted dry with a tissue and the epidermis was removed by scraping with a surgical blade. The epidermis was minced, placed into microcentrifuge vials, immediately snap frozen and stored in liquid N2 until extracted.
For extraction the tissue was soaked in 7.6 ml Bligh/Dyer extraction media (2 ml chloroform, 4 ml Methanol, 1.6 ml H2O) overnight at room temperature. The following day the tissue was shaken for 20 min. and centrifuged for 10 min. the solvent was removed and the pellet was combined with 7.6 ml Bligh/Dyer media and again shaken and centrifuged. The solvents were combined with solvent from the soaks and filtered through pre-solvent-washed Whatman 43 filter paper, 2 ml chloroform and 2 ml H2O was added to each 7.6 ml quantity of the filtrate and shaken for 10 min. The samples were then centrifuged and the upper phase discarded. The lower phase was washed with 4 ml chloroform, 4 ml MetOH, and 3.6 ml H2O (shaken for 10 min and centrifuged). The upper phase was discarded. The lower phase was dried under N2 in a 47° C. water bath. The lipid was resuspended in chloroform and weighed on the Cahn balance.
TLC was performed using 15-20 μg samples and quantitated against standard glycosylceramide and 40 μg sample for sphingolipids (Holleran, W. M. et al. (1993) J. Clin. Invest. 91:1656-1664).
Both glucosylceramide and ceramide content was then determined in lower (stratum basale) and upper (stratum spinosum, stratum granulosum and stratum corneum) epidermis (FIG. 23). Following 24 hours of CBE treatment samples were excised following treatment (as in Example 16).

murine epidermis [1] = assay: Epidermal DNA synthesis, [3H]-thymidine incorporation in vivo; parameters: species or system mouse; conditions: CBE 750 nmol/5cm^2/day, five days; FIG. 17
hairless mouse skin = assay: Appearance and texture of treated skin; assay type: in vivo; conditions: application of CBE
Procedure: To determine whether inhibitors of β-glucocerebrosidase would cause more profound effects than applications of exogenous GlcCER alone (examples 5&6), we next applied the specific, suicide inhibitor, bromoconduritol-B-epoxide (BrCBE) to intact hairless mouse skin (Simonsen Laboratories, Gilroy, Calif.) (Holleran, W. M. et al., J. Clin. Invest. (1993) 91:1656-1664). BrCBE (325 nmol in 20 μl propylene glycol:ethanol, 7:3 vols) was applied once daily for 0-14 days. (Holleran, W. M. et al. (1994) J. Clin. Inv. 93:1756-1764)

murine epidermis [2] = assay: Epidermal DNA synthesis, [3H]-thymidine incorporation in vivo; parameters: species or system mouse
Procedure: To assess the effects of a topical β-glucocerebrosidase inhibitor, conduritol-B-epoxide (CBE) in epidermal DNA synthesis two slightly different dosage protocols have been employed. In all cases, mice were treated topically with 20 μl to 40 μl of 250 nmol/μl CBE bid for 2-5 days on the right flank. On the last day, the mice were injected intraperitoneally with ^3H-thymidine (1 μCi/G body weight) diluted 1:10 in 100-200 μl isotonic NaCl. After one hour the mice were sacrificed. Whole skin was excised and subcutaneous fascia and fat were removed by scraped. Skin samples were placed dermis side downward onto 10 mM EDTA in phosphate buffered saline (PBS-CMF; pH 7.4) and incubated at 37° C. for 40 min. The skin was blotted dry with a tissue and epidermis removed by scraping with a surgical blade. The epidermis was minced into small pieces and placed in microcentrifuge vials. Samples were immediately snap frozen and stored in liquid nitrogen until immediately prior to preparation of the epidermal homogenates. 300 μl of 10 mM EDTA in PBS-CMF (pH 7.4) was added to all samples which then underwent tissue homogenization using Polytron (15 sec, ×2 on ice. Polytron tip was rinsed between each homogenization with 400 μl 10 mM EDTA in PBS-CMF. Rinses were combined with same original samples. Samples were sonicated twice for 10 sec on ice. 100 μl of 20% TCA was added and left for 10 min at 4° C. Samples were centrifuged at 2000×g at 4° C. for 5 min. The supernatant was discarded. 500 μl of 5% TCA was added and the samples were centrifuged at 2000×g at 4° C. for 5 min. The supernatant was discarded and this step was repeated again. The precipitate was resuspended in 1ml of 1N NaOH and vortexed. 400 μl or NaOH plus 400 μl of 1N HCl with 8ml Ecolume was used as a background blank. Vials were counted the following day.
We next determined whether the topical administration of structurally similar but less efficient β-glucosidase inhibitors would induce epidermal hyperproliferation. Animals were treated topically twice daily with either Conduritol-B-epoxide, Conduritol B (CB), or deoxynojirimycin (dNJM), each at 40 μl of 250 nmol/μl twice daily, as described in Example 10. After 24 hours, [^3H]-thymidine was injected intraperitoneally and incorporation of thymidine into DNA was determined (FIG. 26 A&B). […] This reduced activity is a result of the relative availability of these inhibitors to in vivo tissues.
Animals were treated as described in Example 10.
We next determined whether occlusion with a vapor-impermeable membrane would enhance the effects of a β-glucocerebrosidase inhibitor on epidermal DNA synthesis. […] After 24 hrs animals were injected with [^3H]-thymidine, and incorporation into DNA was determined (Proksch, et. al., J. Clin. Invest. 87:1668-1673, 1991).

[3] = one day of CBE treatment, FIG. 23

O[C@H]1[C@H](O)[C@@H](O)[C@@H]2O[C@@H]2[C@@H]1O (racemic) [CBE, conduritol-B-epoxide]
level of glucosylceramide, higher in treated samples (hairless mouse epidermis; 20 μl of 250 nmol/μl CBE tid x5d, 250 mm^2 skin sample): 34-147% | level of glucosylceramide, higher in treated samples (hairless mouse epidermis; 40 μl of 250 nmol/μl CBE tid x3d, 500 mm^2 skin sample): 57-152% | epidermal glucosylceramide content (hairless mouse epidermis; one day of CBE application, FIG. 22): invariably increased | ceramide levels of upper and lower epidermis (hairless mouse epidermis; [3]): not significantly altered | glucosylceramide content of upper and lower epidermis (hairless mouse epidermis; [3]): significant increase | proliferative index, CBE-treated over control epidermis ([3H]-thymidine incorporation) (murine epidermis [1]): approximately 1.6 | thickness, firmness and pliability of murine skin (hairless mouse skin): increased | DNA synthesis, CBE, GlcCER and occlusion (murine epidermis [2]; latex wrap, 24 hrs): increased DNA synthesis | epidermal DNA synthesis ([3H]-thymidine incorporation) (murine epidermis [2]; topical 40 μl of 250 nmol/μl twice daily, after 24 hours): potent stimulation | DNA synthesis rates, CBE+occlusion vs CBE alone (murine epidermis [2]; water-vapor impermeable latex wrap, 24 hrs, 4 separate studies): equivalent or higher
